In the supplement of paper PMC10477900:
Counter-ions that a name gives are not always drawn.

Tests used:
HCT116 [1] = details: 72 h
Procedure: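 HCT116 control and MTA1-KO (CRISPR) HCT116 cells were seeded in 384-well plates (800 cells/well), treated 16 h later with 237 metabolism-related anticancer drugs at five doses (10 uM, 2 uM, 400 nM, 80 nM, 16 nM) for 72 h, two replicates; viability by CCK8. Values are % inhibition of viability relative to untreated cells, plus fitted IC50.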

HCT116 [2] = assay: viability inhibition vs untreated; higher = more cytotoxic; details: 72 h

SMILES | IC50 (HCT116 [1]; genotype: MTA1-KO) [µM] | IC50 (HCT116 [1]; genotype: control) [µM] | viability inhibition (HCT116 [2]; genotype: MTA1-KO, 16 nM) [%] | viability inhibition (HCT116 [2]; genotype: MTA1-KO, 80 nM) [%] | viability inhibition (HCT116 [2]; genotype: MTA1-KO, 400 nM) [%] | viability inhibition (HCT116 [2]; genotype: MTA1-KO, 2000 nM) [%] | viability inhibition (HCT116 [2]; genotype: MTA1-KO, 10000 nM) [%] | viability inhibition (HCT116 [2]; genotype: control, 16 nM) [%] | viability inhibition (HCT116 [2]; genotype: control, 80 nM) [%] | viability inhibition (HCT116 [2]; genotype: control, 400 nM) [%] | viability inhibition (HCT116 [2]; genotype: control, 2000 nM) [%] | viability inhibition (HCT116 [2]; genotype: control, 10000 nM) [%]
CO[C@H]1C[C@@H]2CC[C@@H](C)[C@@](O)(O2)C(=O)C(=O)N2CCCC[C@H]2C(=O)O[C@H]([C@H](C)C[C@@H]2CC[C@@H](OC(=O)C(C)(CO)CO)[C@H](OC)C2)CC(=O)[C@H](C)/C=C(\C)[C@@H](O)[C@@H](OC)C(=O)[C@H](C)C[C@H](C)/C=C/C=C/C=C/1C [Temsirolimus] | < 0.016 | > 10 | 56.3 | 49.2 | 48.4 | 46.7 | 60.5 | 12 | 10.7 | 8.05 | -1.62 | 46.1
CC1(C)CC[C@]2(C(=O)O)CC[C@]3(C)[C@H](C(=O)C=C4[C@@]5(C)C=C(C#N)C(=O)C(C)(C)[C@@H]5CC[C@]43C)[C@@H]2C1 [Bardoxolone] | 3.04 | 2.54 | 6.64 | -8.28 | -9 | 44.1 | 103 | -7.41 | -6.83 | -2.5 | 40.7 | 103
CC(=O)Nc1ccc(NC(=S)NC(=O)c2ccc(C(C)(C)C)cc2)cc1 [Tenovin-1] | 0.456 | 0.931 | -26.3 | -21.8 | 12.8 | 59.2 | 62.3 | -20.9 | -18.3 | 3.67 | 73.1 | 90.4
NS(=O)(=O)NCCNc1nonc1C(=Nc1ccc(F)c(Br)c1)NO [Epacadostat] | > 10 | > 10 | 17.9 | -8.61 | -7.79 | -6.79 | 6.59 | -9.21 | -6.3 | -14.3 | -5.67 | -5.46
NCc1ccc(S(N)(=O)=O)cc1 [Mafenide hydrochloride] | > 10 | > 10 | -13 | -12.9 | -16.5 | -13.4 | -15.9 | -4.74 | 6.87 | -2.33 | -2.58 | -6.77
O=[N+]([O-])c1ccc(Nc2ccccc2-c2ccccc2)c2nonc12 | 8.18 | > 10 | 2.01 | -8.53 | -10.8 | -6.96 | 68.6 | 9.25 | 24.7 | 13.3 | 14.3 | 23.9
Cc1nc2ccc(CN(C)c3ccc(C(=O)N[C@@H](CCC(=O)O)C(=O)O)s3)cc2c(=O)[nH]1 [Raltitrexed] | 0.0857 | > 10 | -4.56 | 33.6 | 75.8 | 81.5 | 82.6 | -7.91 | -17.2 | 24.9 | 13 | -5.41
NS(=O)(=O)c1cc2c(cc1Cl)NC(CSCc1ccccc1)=NS2(=O)=O [Benzthiazide] | > 10 | > 10 | -4.89 | -8.13 | -6.12 | -11.1 | 36.1 | -2.68 | 0.658 | -1.2 | 7.85 | 44.8
CCCC[S+]([O-])c1sc2nc(-c3cccs3)cc(-c3ccccc3)c2c1N (stereo unspecified) | > 10 | > 10 | 13.3 | 12.3 | 5.6 | 9.12 | 41.9 | 5.17 | 3.85 | 2.26 | 4.74 | 8.23
COc1cccc2cc(-c3nc(C4CCC(C(=O)O)CC4)n4ncnc(N)c34)[nH]c12 (stereo unspecified) [OSI027] | > 10 | > 10 | 12.5 | 9.23 | 10.1 | -2.44 | 2.62 | -12.5 | -20.5 | -21.1 | 13.8 | 42.3
COc1ccc(COc2cc3oc(=O)c4cc(C(C)O)ccc4c3cc2OC)cc1 (stereo unspecified) [Palomid 529] | 0.283 | 1.11 | -7.41 | 23.6 | 37.3 | 64.4 | 90.1 | 7.44 | 22.7 | 38.9 | 54.6 | 86.9
Cc1cc(-c2nc(-c3ccc(OC(F)(F)F)cc3)no2)nn1Cc1ccnc(N2CCN(C3CC3)CC2)c1 [BAY 87-2243] | > 10 | < 0.016 | 21 | 24.5 | 21.4 | 19.2 | 19.2 | 86.8 | 72.7 | 68.2 | 67.4 | 70.2
O=C([O-])C(Cl)Cl.[Na+] [Sodium Dichloroacetate] | > 10 | > 10 | -5.96 | -6.01 | -16.4 | -11.2 | 11.1 | -15.2 | -8.93 | -10.2 | -22.3 | -2.12
OCc1ccc(-c2nn(Cc3ccccc3)c3ccccc23)o1 [Lificiguat] | 2.7 | 2.38 | -2.39 | 4.47 | 8.63 | 37.6 | 92.2 | 0.501 | 5.33 | -0.629 | 22.8 | 100
O=C(/C=C/c1ccc2ccccc2n1)c1ccncc1 [PFK015] | 2.71 | 2.17 | -28 | -23.8 | -16.3 | -14 | 124 | -7.66 | -7.18 | -5.47 | 34 | 124
CNC(=O)c1cccc(-c2ccc3c(N4CCOC[C@@H]4C)nc(N4CCOC[C@@H]4C)nc3n2)c1 [Vistusertib] | 0.189 | 0.319 | 16.2 | 29.8 | 63.1 | 83.3 | 76.2 | -6.57 | -15 | 45.6 | 74.4 | 69.9
CC(=O)O[C@H]1[C@H]2O[C@]23[C@@H]2CC[C@@H]4C[C@@H](O)CC[C@]4(C)[C@H]2CC[C@]3(C)[C@H]1c1ccc(=O)oc1 [Cinobufagin] | < 0.016 | 0.0795 | 51.8 | 51.6 | 84.4 | 88.9 | 92.1 | 19.9 | 58.1 | 96.5 | 96.5 | 94.8
Nc1ccccc1S(N)(=O)=O [2-Aminobenzenesulfonamide] | > 10 | > 10 | -12 | -6.34 | -8.18 | -6.12 | -8.74 | -4.67 | -10.5 | -7.82 | -0.883 | 19.7
